Data set [1] relates to gram negative organisms. Put plainly: Antibacterial activity of nebramycin VII in words. It is filed as cell-based.
Data set [2] relates to Pseudomonas aeruginosa PI1. Put plainly: Agar dilution MIC, Antibiotic Spectrum of Nebramycin VII. Format: cell-based. In general terms: Agar dilution tests growth on a series of plates holding different concentrations.
Data set [3] concerns Staphylococcus aureus 3055. Described as above. Conditions: Staphylococcus aureus 3055, Penicillin G sensitive strain.
Data set [4] deals with Pseudomonas aeruginosa PS9. Described as above. Format: cell-based.
Data set [5] deals with Proteus morganii PR1. The data set is described as above. Format: cell-based.
Data set [6] deals with Providencia sp. 439. Described as above. Format: cell-based.
Data set [7] relates to Pseudomonas aeruginosa PS15. The data set is described as above. It is filed as cell-based.
A short description of data set [8]: Toxicity in words.
The subject of data set [9] is Pseudomonas aeruginosa PI23. In words: Agar dilution MIC, Antibiotic Spectrum of Nebramycin VII. It is filed as cell-based.
The test system of data set [10] is Enterobacter cloacae EB5. Described as above. Format: cell-based.
The subject of data set [11] is Streptococcus sp. (group D) 9960. The data set is described as above. Format: cell-based.
The test system of data set [12] is Enterobacter cloacae EB8. The data set is described as above. It is filed as cell-based.
Data set [13] in a line: Solubility. Format: physicochemical.
In data set [14] the test system is Serratia marcescens SE3. In words: Agar dilution MIC, Antibiotic Spectrum of Nebramycin VII. It is filed as cell-based.
Data set [15] deals with Pseudomonas pseudomallei 121. It is filed as cell-based. Particulars: agar dilution.
For data set [16], the system named is Proteus vulgaris PR27. In words: Agar dilution MIC, Antibiotic Spectrum of Nebramycin VII. It is filed as cell-based.
Data set [17] deals with Proteus rettgeri PR7. Described as above. Format: cell-based.
In data set [18] the test system is Pseudomonas aeruginosa PI12. The data set is described as above. Format: cell-based.
Data set [19] has as its system Pseudomonas aeruginosa PI24. The description is as above. It is filed as cell-based.
The subject of data set [20] is Pseudomonas maltophilia 438. The description is as above. Format: cell-based.
Data set [21] deals with Enterobater aerogenes EB2. Described as above. It is filed as cell-based.
Data set [22] relates to Pseudomonas aeruginosa PI37. The data set is described as above. It is filed as cell-based.
For data set [23], the system named is Proteus morganii PR15. Described as above. Format: cell-based.
The subject of data set [24] is Pseudomonas cepacia 5629. Described as above. Format: cell-based.
Data set [25] relates to Enterobacter aerogenes EB4. The description is as above. Format: cell-based.
Data set [26] has as its system Pseudomonas aeruginosa PS10. The data set is described as above. Format: cell-based.
Data set [27] relates to Pseudomonas aeruginosa PI27. The data set is described as above. Format: cell-based.
For data set [28], the system named is Staphylococcus aureus 3074. The data set is described as above. Particulars: Staphylococcus aureus 3074, Penicillin G resistant strain.
Data set [29] has as its system Proteus mirabilis PR3. The description is as above. Format: cell-based.
Data set [30] has as its system Pseudomonas solanacearum X185. It is filed as cell-based. Conditions: agar dilution.
In data set [31] the test system is Pseudomonas aeruginosa PI21. Put plainly: Agar dilution MIC, Antibiotic Spectrum of Nebramycin VII. Format: cell-based.
Data set [32] deals with Proteus rettgeri PR2. The data set is described as above. It is filed as cell-based.
Data set [33] has as its system Streptococcus sp. (group D) 9901. The description is as above. Format: cell-based.
Data set [34] concerns Pseudomonas cepacia 3189. The description is as above. It is filed as cell-based.
For data set [35], the system named is Pseudomonas aeruginosa PS14. Described as above. It is filed as cell-based.
The subject of data set [36] is Pseudomonas aeruginosa PS34. The data set is described as above. Format: cell-based.
Data set [37] deals with Escherichia coli EC2. Described as above. It is filed as cell-based.
Data set [38] relates to Staphylococcus aureus 3130. The description is as above. Particulars: Staphylococcus aureus 3130, Methicillin resistant strain.
For data set [39], the system named is Proteus vulgaris PR28. The description is as above. Format: cell-based.
Data set [40] has as its system Escherichia coli EC8. The data set is described as above. It is filed as cell-based.
In data set [41] the test system is Proteus mirabilis PR11. The description is as above. It is filed as cell-based.
Data set [42] deals with Pseudomonas species. Particulars: cited from earlier work.

As to `CN[C@@H]1[C@@H](O[C@H]2O[C@H](CO)[C@@H](N)[C@H](O)[C@H]2O)O[C@H]2[C@H](O)[C@@H](N)[C@@H](O[C@H]3[C@H](O)[C@@H](O)[C@H](N)C[C@@H]3N)O[C@@H]2[C@@H]1O` [Nebramycin VII], in data set [1], the “activity against the gram negative organisms” value was “high degree of activity”. Moreover, the “Minimum Inhibitory Concentration” value in data set [2] was determined as 64 µg/mL; in data set [3], 8 µg/mL; in data set [4] it was 16 µg/mL; in data set [5], 8 µg/mL; in data set [6], 32 µg/mL; in [7], 8 µg/mL. The “Minimum Inhibitory Concentration” value is above 256 µg/mL in data set [9]; 8 µg/mL in data set [10]; 128 µg/mL in data set [11]; 8 µg/mL in data set [12]; 8 µg/mL in data set [14]; 32 µg/mL in data set [15]. Further, the “Minimum Inhibitory Concentration” value worked out at 8 µg/mL in [16]; 16 µg/mL in data set [17]; 16 µg/mL in data set [18]; 256 µg/mL in [19]; 16 µg/mL in [20]; 8 µg/mL in data set [21]. Further, the “Minimum Inhibitory Concentration” value was above 256 µg/mL in [22]; 32 µg/mL in [23]; 128 µg/mL in data set [24]; 8 µg/mL in [25]; 8 µg/mL in data set [26]; 64 µg/mL in data set [27]. For the same compound, the “Minimum Inhibitory Concentration” value was 4 µg/mL in data set [28]; 8 µg/mL in data set [29]; 4 µg/mL in data set [30]; above 256 µg/mL in [31]; 32 µg/mL in [32]; above 256 µg/mL in [33]. Besides, the “Minimum Inhibitory Concentration” value in [34] worked out at 256 µg/mL; in data set [35] it was 8 µg/mL; in data set [36] it was 4 µg/mL; in data set [37] it was 16 µg/mL; in data set [38], 4 µg/mL; in data set [39] it was 8 µg/mL. The “Minimum Inhibitory Concentration” value in [40] and in [41] was 16 µg/mL in each case. Moreover, in data set [8], the toxicity result is reported as “relatively non-toxic”. Besides, the “solubility in the higher alcohols and most common organic solvents” value in [13] (higher alcohols and most common organic solvents) was “substantially insoluble”. In addition, the solubility in methanol entry in [13] (methanol) is reported as “slightly soluble”. Besides, the solubility in water entry in [13] (water) was “water soluble”.

For `CN[C@@H]1[C@@H](O[C@H]2O[C@H](CO)[C@@H](N)[C@H](O)[C@H]2O)OC2C[C@@H](N)[C@@H](O[C@H]3[C@H](O)[C@@H](O)[C@H](N)C[C@@H]3N)OC2[C@@H]1O` (some centres unmarked) [Nebramycin II], the “antibiotic activity against Pseudomonas species” value in data set [42] was “antibiotic activity”.

Values taken from patent publication US3962427A, “Antibiotic nebramycin factor VII” (Eli Lilly and Company, priority 1974, dated 1976).
